Measured values taken from ChEMBL document CHEMBL3244093, “Synthesis and antiinflammatory activity of trisubstituted pyrimidines and triazines” (1978).

Tested on: Rattus norvegicus
Test: Antiinflammatory activity in rat assessed as inhibition of carrageenan-induced foot edema at 100 mg/kg, po administered 1 hr before carrageenan challenge measured after 3 to 3.5 hrs relative to untreated control
Format: functional

Row | SMILES | inhibition in vivo at 100 mg/kg
1 | CC(=O)N(C(C)=O)c1ncc(-c2ccccc2)c(C(C)(C)C)n1 | 22%
2 | Nc1nccc(-c2ccncc2)n1 [listing 1 of 2 here] | 18%
3 | Cc1nnc2c([n+]1[O-])CC(C(C)(C)C)CC2 (stereo unspecified) | 48%
4 | CC(C)(C)c1nc(N)ncc1-c1ccccc1 | 46%
5 | Cc1ncc(C(C)(C)C)nn1 | 25%
6 | c1cc(-c2ccncn2)ccn1 | 45%
7 | Cc1nnc2c(n1)CC(C(C)(C)C)CC2 (stereo unspecified) | < 5%
8 | CC(C)(C)c1nc(N)ncc1-c1ccc(Cl)cc1 | 25%
9 | CNc1ncc(-c2ccccc2)c(C(C)(C)C)n1 | 37%
10 | c1ccc2c(c1)CCCc1ncnnc1-2 | < 5%
11 | CC(C)(C)C1CCc2nnc(-c3ccccc3)[n+]([O-])c2C1 (stereo unspecified) | 15%
12 | c1ccc2c(c1)CCc1cncnc1-2 | 32%
13 | COc1ccc(-c2cnc(C)nc2-c2ccc(OC)cc2)cc1 | < 5%
14 | CNc1nccc(C(C)(C)C)n1 | 34%
15 | Cc1nnc2c(ccc3ccccc32)n1 | < 5%
16 | CC(C)(C)C1CCc2nc(N)ncc2C1 (stereo unspecified) | 41%
17 | CN(C)c1nccc(C(C)(C)C)n1 | 18%
18 | Cc1ncc(C)c(-c2ccccc2)n1 | 12%
19 | CSc1nccc(C(C)(C)C)n1 | 35%
20 | CC(C)(C)c1nc(NC#N)ncc1-c1ccccc1 | < 5%
21 | CC(=O)Nc1nccc(-c2ccncc2)n1 | 52%
22 | CCCCc1nnc2c(ccc3ccccc32)n1 | < 5%
23 | N#CNc1nccc(-c2ccncc2)n1 | < 5%

Row | SMILES | inhibition in vivo at 100 mg/kg
24 | CC(C)(C)c1ccnc(N)n1 | 32%
25 | Cc1cncnc1-c1ccncc1 | 50%
26 | CC(C)(C)c1nc(N)ncc1-c1cccc(C(F)(F)F)c1 | 8%
27 | Cc1ncc2c(n1)-c1ccccc1CC2 | < 5%
28 | Cc1ncc2c(n1)CCC(C(C)(C)C)C2 (stereo unspecified) | < 5%
29 | CN1CCc2nc(N)ncc2C1 | < 5%
30 | CC(C)(C)c1ccnc(S)n1 | 22%
31 | CCOC(=O)Nc1ncc(-c2ccccc2)c(C(C)(C)C)n1 | 24%
32 | NC(=O)Nc1nccc(-c2ccncc2)n1 | 12%
33 | CC(C)(C)Nc1nccc(C(C)(C)C)n1 | 26%
34 | CC(C)(C)c1ccnc(Cl)n1 | < 5%
35 | Nc1ncc(-c2ccccc2)c(-c2ccncc2)n1 | 48%
36 | CC(C)(C)c1ccnc(NCCc2ccccc2)n1 | 10%
37 | CC(C)(C)C1CCc2nncnc2C1 (stereo unspecified) | 49%
38 | Cc1ncc(-c2ccccc2)c(C(C)(C)C)n1 | 22%
39 | CC(C)(C)c1cnc(-c2ccccc2)nn1 | 38%
40 | Cc1cnc(N)nc1-c1ccccc1 | 34%
41 | CC(C)(C)c1nc(NN)ncc1-c1ccccc1 | < 5%
42 | CC(C)(C)c1nc(-c2ccccc2)ncc1-c1ccccc1 | < 5%
43 | CC(=O)Nc1ncc(-c2ccccc2)c(C(C)(C)C)n1 | 29%
44 | c1ccc(-c2nnc3c(ccc4ccccc43)n2)cc1 | < 5%
45 | c1ncc2c(n1)CCCCCCCCCC2 | < 5%
46 | Cc1ncc2c(n1)CCCCCCCCCC2 | < 5%

Row | SMILES | inhibition in vivo at 100 mg/kg
47 | CC(C)(C)c1ccnc(NCc2ccccc2)n1 | 14%
48 | CN1CCc2ncncc2C1 | 50%
49 | Nc1ncc2c(n1)-c1ccccc1CC2 | 32%
50 | CC(C)(C)c1nc(NC(=O)CCCC(=O)O)ncc1-c1ccccc1 | 5%
51 | CC(C)(C)c1ccnc(Nc2ccccc2)n1 | 21%
52 | c1ccc2c(c1)ccc1ncnnc12 | < 5%
53 | c1ccc(-c2nccc(-c3ccncc3)n2)cc1 | 42%
54 | Cc1nc(-c2ccccc2)nnc1-c1ccccc1 | < 5%
55 | Cc1ncnnc1-c1ccccc1 | < 5%
56 | Cc1ncc2c(n1)-c1ccccc1C2 | < 5%
57 | Cc1cncnc1-c1ccccc1 | 48%
58 | CC(C)(C)c1nc(NC(N)=O)ncc1-c1ccccc1 | 14%
59 | Cc1ncc2c(n1)-c1ccccc1CCC2 | < 5%
60 | CC(C)(C)c1c[n+]([O-])c(-c2ccccc2)nn1 | 35%
61 | CC(C)(C)C1CCc2nnc[n+]([O-])c2C1 (stereo unspecified) | 36%
62 | CC(C)(C)c1ncncc1-c1ccccc1 | 48%
63 | Nc1nccc(-c2cccnc2)n1 | 32%
64 | Cc1nnc(C(C)(C)C)c[n+]1[O-] | 22%
65 | CCOC(=O)Nc1nccc(-c2ccncc2)n1 | 31%
66 | Cc1ncc2c(n1)CCN(C)C2 | 45%
67 | Nc1nccc(-c2ccccn2)n1 | 17%
68 | Nc1ncc2c(n1)CCCCCCCCCC2 | < 5%

Tested on: Rattus norvegicus
Test: Antiinflammatory activity in po dosed rat assessed as inhibition of carrageenan-induced foot edema compound administered 1 hr before carrageenan challenge measured after 3 to 3.5 hrs relative to untreated control
Format: functional

Row | SMILES | ED50
69 | CC(C)(C)c1c[n+]([O-])cnn1 | 98 mg/kg
70 | c1ccc(-c2cncnc2-c2ccncc2)cc1 | 95 mg/kg
71 | Cc1ccc2c(-c3ccccc3)nc(=O)n(C(C)C)c2c1 [PROQUAZONE] | 5.2 mg/kg
72 | CNc1nccc(-c2ccncc2)n1 | 49 mg/kg
73 | CC(C)(C)C1CCc2ncncc2C1 (stereo unspecified) | 58 mg/kg
74 | Nc1nccc(-c2ccncc2)n1 [listing 2 of 2 here] | 38 mg/kg
75 | CC(C)(C)c1ccnc(O)n1 | 43 mg/kg
76 | CN(C)CC(=O)Nc1ncc(-c2ccccc2)c(C(C)(C)C)n1 | 84 mg/kg
77 | Cc1nccc(-c2ccncc2)n1 | 47 mg/kg
78 | COc1ccc(-c2cnc(N)nc2-c2ccc(OC)cc2)cc1 | 85 mg/kg
79 | Cc1cnc(N)nc1-c1ccncc1 | 66 mg/kg
80 | CCCCC1C(=O)N(c2ccccc2)N(c2ccccc2)C1=O [PHENYLBUTAZONE] | 25 mg/kg
81 | Cc1c(-c2ccccc2)nnc[n+]1[O-] | 64 mg/kg
